The text below walks through data of patent publication EP0286926A2, “Semi-synthetic rhodomycins, method for their preparation and their use as cytostatics” (BEHRINGWERKE Aktiengesellschaft, priority 1987, dated 1988).

In brackets after ≈: the same amount, converted by molar mass. Read-outs that look alike come from different tables or passages of the source. A value given as a limit tells only on which side of the number the result lay.

The test system of the assay is L1210 Leukämiezellen. The assay is described as follows: Colony formation of L1210 leukemia cells in soft agar. Format: cell-based, Maus. As to conditions: Mus musculus. The text has this: Die zytostatische Wirksamkeit der erfindungsgemäßen Verbindungen wurde anhand von L1210 Leukämiezellen der Maus getestet. Hierzu wurde die Koloniebildung von L1210 Leukämiezellen in Agarplatten herangezogen. Diese Methode dient zum Nachweis des Einflusses der Testsubstanzen auf das Wachstumsverhalten der Zellen nach Inkubation von 1 Stunde oder über mehrere Generationen. Bei einer Zelzykluszeit von 10-12 Stunden werden dabei in der Testzeit von 7 Tagen etwa 14 aufeinanderfolgende Generationen beobachtet. Die erfindungsgemäßen zytostatisch wirksamen Substanzen bewirken in diesem Test eine Reduktion der zu beobachtenden Koloniezahl gegenüber einer unbehandelten Kontrollprobe.
Einzelheiten des Testverfahrens ergeben sich aus der nachfolgenden Verfahrensweise zur Ermittlung der Koloniebildung.
Verfahrensweise zur Ermittlung der Koloniebildung von L1210 Leukämiezellen in Soft-Agar
500 Leukämiezellen pro Platte wurden mit unterschiedlichen Konzentrationen der Testsubstanz 1 Stunde bei 37°C inkubiert. Anschließend wurden die Zellen zweimal mit McCoy5A-Medium gewaschen und schließlich in Petrischalen nach Zugabe von 0,3 % Agar ausgegossen. Kontrollen wurden lediglich mit frischem Medium inkubiert. Anstelle der einstündigen Inkubation wurden in manchen Fällen unterschiedliche Konzentrationen und Testsubstanzen der oberen Agarschicht zugemischt, um so eine kontinuierliche Exposition der Zellen über die gesamte Inkubationszeit zu erreichen. Nach Erstarren des Agars wurden die Platten im Brutschrank 7 Tage bei 37°C inkubiert (5 Vol.-% CO₂, 94 % relative Luftfeuchtigkeit). Anschließend wurde die Zahl der entstandenen Kolonien mit einem Durchmesser von mehr als 60 µm gezählt. Die Ergebnisse wurden angegeben als Koloniezahl in behandelten Agarplatten in Prozent der unbehandelten Kontrolle. Aus der so erhaltenen Dosiswirkungskruve wurde die IC₅₀ als Maß für die Wirksamkeit der Substanz ermittelt. Die Ergebnisse für die hier beschriebenen Verbindungen im Vergleich zu Adriamycin sind in der nachfolgenden Tabelle 1 zusammengefaßt.

Where [1] appears, read: L1210, 168 h, continuous exposure: substance mixed into upper agar layer for the whole 7-day incubation at 37°C, colonies > 60 µm counted, percent of untreated control, read-out: Dauerinkubation IC50.
The mark [2] stands for this setting: L1210, 1 h incubation with substance at 37°C, cells washed twice, then plated in 0,3 % agar for 7 days, colonies > 60 µm counted, read-out: 1h-Inkubation IC50.
The mark [3] stands for this setting: L1210, 168 h, read-out: Dauerinkubation IC50.
Where [4] appears, read: L1210, read-out: 1h-Inkubation IC50.

As usually defined, the IC50 is the concentration that gives 50% inhibition. Consider `CC[C@@]1(O)C[C@H](O[C@H]2C[C@H](N)[C@H](O)[C@H](C)O2)c2c(O)c3c(c(O)c2[C@H]1O[C@H]1C[C@H](N)[C@H](O)[C@H](C)O1)C(=O)c1cccc(O)c1C3=O` [Beispiel 29, 7,10-Di-O-α-L-daunosaminyl-β-rhodomycinon], for which the IC50 was more than 10 µg/mL under setting [1] and more than 1 µg/mL under setting [2].
Consider `CC[C@@]1(O)C[C@H](O[C@H]2C[C@H](NCC#N)[C@H](O)[C@H](C)O2)c2c(O)c3c(c(O)c2[C@H]1O[C@H]1C[C@H](NCC#N)[C@H](O)[C@H](C)O1)C(=O)c1cccc(O)c1C3=O` [Beispiel 30, 7,10-O-Di-(3-N-Cyanomethyl-α-L-daunosaminyl)-β-rhodomycinon], for which the IC50 runs as follows: under setting [3], 0.5 µg/mL (≈ 0.692 µM); under setting [4], more than 1 µg/mL.
Regarding `CC[C@@]1(O)C[C@H](O[C@H]2C[C@H](N)[C@@H](O)[C@H](C)O2)c2c(O)c3c(c(O)c2[C@H]1O[C@H]1C[C@H](N)[C@@H](O)[C@H](C)O1)C(=O)c1cccc(O)c1C3=O` [Beispiel 33, 7,10-Di-O-α-L-acosaminyl-β-rhodomycinon], the IC50 was more than 1 µg/mL under setting [1] and more than 1 µg/mL under setting [2].
With `CC[C@@]1(O)C[C@H](O[C@H]2C[C@H](N(C)C)[C@@H](O)[C@H](C)O2)c2c(O)c3c(c(O)c2[C@H]1O[C@H]1C[C@H](N(C)C)[C@@H](O)[C@H](C)O1)C(=O)c1cccc(O)c1C3=O` [Beispiel 34], the IC50 is, setting by setting: under setting [3], 0.026 µg/mL (≈ 0.0371 µM); under setting [4], 0.09 µg/mL (≈ 0.128 µM).
For `CC[C@@]1(O)C[C@H](O[C@H]2C[C@H](NC(=O)C(F)(F)F)[C@@H](OC(=O)c3ccc([N+](=O)[O-])cc3)[C@H](C)O2)c2c(O)c3c(c(O)c2[C@H]1O[C@H]1C[C@H](NC(=O)C(F)(F)F)[C@H](OC(=O)c2ccc([N+](=O)[O-])cc2)[C@H](C)O1)C(=O)c1cccc(O)c1C3=O` [Beispiel 35, 7-0-(4-0-Paranitrobenzoyl-3-N-trifluoracetyl-α-L-acosaminyl)-10-0-(4-0-paranitrobenzoyl-3-N-trifluoracetyl-α-L-daunosaminyl)-β-rhodomycinon], in that order: more than 1 µg/mL and more than 1 µg/mL.
Turning to `CC[C@@]1(O)C[C@H](O[C@H]2C[C@H](N)[C@@H](O)[C@H](C)O2)c2c(O)c3c(c(O)c2[C@H]1O[C@H]1C[C@H](N)[C@H](O)[C@H](C)O1)C(=O)c1cccc(O)c1C3=O` [Beispiel 37, 7-O-α-L-Acosaminyl-10-0-α-L-daunosaminyl-β-rhodomycinon], the IC50 was more than 1 µg/mL under setting [1] and more than 1 µg/mL under setting [2].
Consider `CC[C@@]1(O)C[C@H](O[C@H]2C[C@H](N(C)C)[C@H](OC(=O)c3ccccc3)[C@H](C)O2)c2c(O)c3c(c(O)c2[C@H]1O[C@H]1C[C@H](NC(=O)C(F)(F)F)[C@@H](OC(=O)c2ccc([N+](=O)[O-])cc2)[C@H](C)O1)C(=O)c1cccc(O)c1C3=O` [Beispiel 38, 7-0-(4-0-Benzoyl-α-L-rhodosaminyl)-10-0-(4-0-paranitrobenzoyl-3-N-trifluoracetyl-α-L-acosaminyl)-β-rhodomycinon], for which the half-inhibitory concentration (IC50) was more than 1 µg/mL under setting [1] and more than 1 µg/mL under setting [2].
Regarding `CC[C@@]1(O)C[C@H](O[C@H]2C[C@H](N(C)C)[C@H](O)[C@H](C)O2)c2c(O)c3c(c(O)c2[C@H]1O[C@H]1C[C@H](N)[C@@H](O)[C@H](C)O1)C(=O)c1cccc(O)c1C3=O` [Beispiel 40, 10-0-α-L-Acosaminyl-7-0-α-L-rhodosaminyl-β-rhodomycinon], the IC50 under setting [1] turned out to be 0.85 µg/mL (≈ 1.26 µM) and the IC50 under setting [2] was more than 1 µg/mL.
As to `CC[C@@]1(O)C[C@H](O[C@H]2C[C@H](N)[C@H](O)[C@H](C)O2)c2c(O)c3c(c(O)c2[C@H]1O[C@H]1C=C[C@@H](O)[C@H](C)O1)C(=O)c1cccc(O)c1C3=O` [Beispiel 42, 10-0-(2,3,6-Tridesoxy-α-L-erythro-hex-2-enopyranosyl)-7-0-α-L-daunosaminyl-β-rhodomycinon], the concentration for half-maximal inhibition (IC50) under setting [3] was found to be 0.16 µg/mL (≈ 0.255 µM) and the 50% inhibitory concentration (IC50) under setting [4] is more than 1 µg/mL.
In the case of `CC[C@@]1(O[C@H]2C[C@H](N)[C@@H](O)[C@H](C)O2)C[C@H](O[C@H]2C[C@H](N)[C@@H](O)[C@H](C)O2)c2c(O)c3c(c(O)c2[C@H]1O[C@H]1C[C@H](N)[C@@H](O)[C@H](C)O1)C(=O)c1cccc(O)c1C3=O` [Beispiel 44, 7,9,10-Tri-O-α-L-acosaminyl-β-rhodomycinon], under setting [4], the IC50 was more than 1 µg/mL.
For `CC[C@@]1(O)C[C@H](O[C@H]2C[C@H](NC(=O)C(F)(F)F)[C@@H](O)[C@H](C)O2)c2c(O)c3c(c(O)c2[C@H]1O)C(=O)c1cccc(O)c1C3=O` [Beispiel 45, 7-O-(3-N-Trifluoracetyl-α-L-acosaminyl)-ß-rhodomycinon], the IC50 under setting [2] came to 0.29 µg/mL (≈ 0.474 µM).
The same measure, in the same setting: the value for `CC[C@@]1(O)C[C@H](O[C@H]2C[C@@H](N)[C@@H](O)[C@H](C)O2)c2c(O)c3c(c(O)c2[C@H]1O)C(=O)c1cccc(O)c1C3=O` [Beispiel 46, 7-O-α-L-Ristosaminyl-β-rhodomycinon] was 0.11 µg/mL (≈ 0.213 µM); that for `CC[C@@]1(O)C[C@H](O[C@H]2C[C@H](N)[C@@H](OCc3ccccc3)[C@H](C)O2)c2c(O)c3c(c(O)c2[C@H]1O)C(=O)c1cccc(O)c1C3=O` [Beispiel 48, 7-O-(4-O-Benzyl-α-L-acosaminyl)-β-rhodomycinon] was 0.095 µg/mL (≈ 0.157 µM).
Regarding `CC[C@@]1(O)C[C@H](O[C@H]2C[C@H](NC(=O)C(F)(F)F)[C@@H](OCc3ccccc3)[C@H](C)O2)c2c(O)c3c(c(O)c2[C@H]1O)C(=O)c1cccc(O)c1C3=O` [Beispiel 49, 7-O-(4-O-Benzyl-3-N-trifluoracetyl-α-L-acosaminyl)-β-rhodomycinon], under setting [4], the concentration for half-maximal inhibition (IC50) was more than 1 µg/mL.
In the case of `CC[C@@]1(O)C[C@H](O[C@@H]2O[C@@H](C)[C@H](O)[C@@H](O)[C@H]2I)c2c(O)c3c(c(O)c2[C@H]1O)C(=O)c1cccc(O)c1C3=O` [Beispiel 50, 7-O-(2,6-Didesoxy-2-iodo-α-L-mannopyranosyl)-β-rhodomycinon], the IC50 under setting [1] was 0.1 µg/mL (≈ 0.156 µM).
On to `CC[C@@]1(O)C[C@H](O[C@H]2C[C@H](N)[C@@H](OCc3ccccc3)[C@H](C)O2)c2c(O)c3c(c(O)c2[C@H]1O[C@H]1C[C@H](N)[C@@H](OCc2ccccc2)[C@H](C)O1)C(=O)c1cccc(O)c1C3=O` [Beispiel 51, 7,10-Di-O-(4-O-Benzyl-α-L-acosaminyl)-β-rhodomycinon], for which the IC50 runs as follows: under setting [1], 0.4 µg/mL (≈ 0.485 µM); under setting [2], 0.68 µg/mL (≈ 0.824 µM).
Take `CC[C@@]1(O)C[C@H](O[C@H]2C[C@H](NC(=O)C(F)(F)F)C[C@H](C)O2)c2c(O)c3c(c(O)c2[C@H]1O)C(=O)c1cccc(O)c1C3=O` [Beispiel 52, 7-O-(4-Desoxy-3-N-trifluoracetyl-α-L-daunosaminyl)-β-rhodomycinon]: the IC50 under setting [2] turned out to be 0.66 µg/mL (≈ 1.11 µM).
For the compound `CC[C@@]1(O)C[C@H](O[C@H]2C[C@H](N)C[C@H](C)O2)c2c(O)c3c(c(O)c2[C@H]1O)C(=O)c1cccc(O)c1C3=O` [Beispiel 53, 7-O-(4-Desoxy-α-L-daunosaminyl)-β-rhodomycinon], the IC50 runs as follows: under setting [1], 0.04 µg/mL (≈ 0.0801 µM); under setting [2], 0.05 µg/mL (≈ 0.1 µM).
